This note sets out measurements from patent US7999115B2, “Spiro antibiotic derivatives” (Actelion Pharmaceutical Ltd., priority 2006, dated 2011).

Converted amounts (≈) assume the structure as drawn. Where only a bound is given, the exact number is not on record here.

Holding throughout (type): cell-based
One assay concerns S. aureus A798. Put plainly: MIC by broth microdilution (NCCLS), S. aureus A798. Particulars: cation-adjusted Mueller-Hinton Broth, pH 7.2-7.3; for MIC: Staphylococcus aureus, A798, second table. The protocol:
(§1) These assays have been performed following the description given in “Methods for dilution Antimicrobial Susceptibility Tests for Bacteria that Grow Aerobically, 4th ed.; Approved standard: NCCLS Document M7-A4; National Committee for Clinical Laboratory Standards Villanova, Pa., USA, 1997”. Minimal inhibitory concentrations (MICs; mg/l) were determined in cation-adjusted Mueller-Hinton Broth (BBL) by a microdilution method following NCCLS guidelines (National Committee for Clinical Laboratory Standards. Methods for Dilution Antimicrobial Susceptibility). The pH of the test medium was 7.2-7.3. All Example compounds were tested against several Gram positive and Gram negative bacteria.
In general terms: In broth dilution the organism is exposed to a series of concentrations in liquid medium.

A further assay concerns S. pneumoniae 49619. Put plainly: MIC by broth microdilution (NCCLS), S. pneumoniae 49619. Particulars: cation-adjusted Mueller-Hinton Broth, pH 7.2-7.3. Here is the method: as §1
The test system of another assay is M. catarrhalis A894. Put plainly: MIC by broth microdilution (NCCLS), M. catarrhalis A894. Conditions: cation-adjusted Mueller-Hinton Broth, pH 7.2-7.3. Here is the method:
as §1

In the case of `COc1ccc2nccc(/C=C/C3CCC4(CC3)CN(c3ccc5c(c3)NC(=O)CS5)C(=O)O4)c2c1` (mixture of isomers) [Example 18, cis/trans-6-{8-[(E)-2-(6-methoxy-quinolin-4-yl)-vinyl]-2-oxo-1-oxa-3-aza-spiro[4.5]dec-3-yl}-4H-benzo[1,4]thiazin-3-one], the “MIC S. aureus A798” value against S. aureus A798 and against S. aureus A798 (second table) was “≦0.031 mg/l” each time. Besides, the “MIC S. pneumoniae 49619” value with S. pneumoniae 49619 came to 0.125 µg/mL. The “MIC M. catarrhalis A894” value against M. catarrhalis A894 is “≦0.031 mg/l”.

In turn, `COC(=O)C[C@@H]1CN(C[C@H](O)c2ccnc3ccc(OC)cc23)CC[C@]12CN(c1ccc3c(c1)OCCO3)C(=O)O2` (racemic) [Example 7, (5RS,6RS)-{3-(2,3-dihydro-benzo[1,4]dioxin-6-yl)-8-[(2RS)-2-hydroxy-2-(6-methoxy-quinolin-4-yl)-ethyl]-2-oxo-1-oxa-3,8-diaza-spiro[4.5]dec-6-yl}-acetic acid methyl ester] returned an MIC against S. aureus A798 of 2 µg/mL (≈ 3.55 µM).

For the compound `COc1ccc2nccc(CCC3(O)CCC4(CC3)CN(c3ccc5c(c3)OCCO5)C(=O)O4)c2n1` (stereo not drawn) [Example 11, cis or trans-3-(2,3-dihydro-benzo[1,4]dioxin-6-yl)-8-hydroxy-8-[2-(6-methoxy-[1,5]naphthyridin-4-yl)-ethyl]-1-oxa-3-aza-spiro[4.5]decan-2-one], in the assay on S. aureus A798 (second table), the “MIC S. aureus A798” value came out at 0.25 µg/mL (≈ 0.509 µM).

Consider `COc1ccc2nccc(OCC3CCC4(CC3)CN(c3ccc5c(c3)OCCO5)C(=O)O4)c2c1` (stereo not drawn) [Example 2, cis-3-(2,3-dihydro-benzo[1,4]dioxin-6-yl)-8-(6-methoxy-quinolin-4-yloxymethyl)-1-oxa-3-aza-spiro[4.5]decan-2-one], for which the “MIC S. aureus A798” value against S. aureus A798 (second table) is 0.25 µg/mL (≈ 0.525 µM).

Turning to `COc1ccc2nccc(OCC3CCC4(CC3)CN(c3ccc5c(c3)OCCO5)C(=O)O4)c2n1` (stereo not drawn) [Example 3, cis-3-(2,3-dihydro-benzo[1,4]dioxin-6-yl)-8-(6-methoxy-[1,5]naphthyridin-4-yloxymethyl)-1-oxa-3-aza-spiro[4.5]decan-2-one], the “MIC S. aureus A798” value against S. aureus A798 (second table) was 2 µg/mL (≈ 4.19 µM).

Take `COc1ccc2nccc(CCC3(O)CCC4(CC3)CN(c3ccc5c(c3)NC(=O)CS5)C(=O)O4)c2n1` (stereo not drawn) [Example 12, cis or trans-6-{8-hydroxy-8-[2-(6-methoxy-[1,5]naphthyridin-4-yl)-ethyl]-2-oxo-1-oxa-3-aza-spiro[4.5]dec-3-yl}-4H-benzo[1,4]thiazin-3-one]: in the assay on S. aureus A798 (second table), the “MIC S. aureus A798” value is “≦0.031 mg/l”.

On to `COc1ccc2nccc(CCC3(O)CCC4(CC3)CN(c3ccc5c(c3)NC(=O)CS5)C(=O)O4)c2n1` (stereo not drawn) [Example 13, cis or trans-6-{8-hydroxy-8-[2-(6-methoxy-[1,5]naphthyridin-4-yl)-ethyl]-2-oxo-1-oxa-3-aza-spiro[4.5]dec-3-yl}-4H-benzo[1,4]thiazin-3-one], for which the “MIC S. aureus A798” value in the assay with S. aureus A798 (second table) is listed as “≦0.031 mg/l”.

For `C=CC[C@@H]1CN(C[C@H](O)c2ccnc3ccc(OC)cc23)CC[C@]12CN(c1ccc3c(c1)OCCO3)C(=O)O2` (racemic) [Example 6, (5RS, 6RS)-6-allyl-3-(2,3-dihydro-benzo[1,4]dioxin-6-yl)-8-[(2RS)-2-hydroxy-2-(6-methoxy-quinolin-4-yl)-ethyl]-1-oxa-3,8-diaza-spiro[4.5]decan-2-one], the MIC against S. aureus A798 amounted to 1 µg/mL (≈ 1.88 µM).

Consider `COc1ccc2nccc(CCC3CCC4(CC3)CN(c3ccc5c(c3)NC(=O)CO5)C(=O)O4)c2n1` (mixture of isomers) [Example 16, cis/trans-6-{8-[2-(6-methoxy-[1,5]naphthyridin-4-yl)-ethyl]-2-oxo-1-oxa-3-aza-spiro[4.5]dec-3-yl}-4H-benzo[1,4]oxazin-3-one], for which the “MIC S. aureus A798” value with S. aureus A798 (second table) is recorded as “≦0.031 mg/l”.

Regarding `COc1ccc2nccc(C(O)CN3CCC4(CC3)CN(c3ccc5c(c3)NC(=O)CS5)C(=O)O4)c2c1` (racemic) [Example 5, 6-{8-[(2RS)-2-hydroxy-2-(6-methoxy-quinolin-4-yl)-ethyl]-2-oxo-1-oxa-3,8-diaza-spiro[4.5]dec-3-yl}-4H-benzo[1,4]thiazin-3-one], the minimal inhibitory concentration (MIC) in the assay on S. aureus A798 is at most 0.031 µg/mL.

For the compound `COc1ccc2nccc(CCC3(O)CCC4(CC3)CN(c3ccc5c(c3)NC(=O)CO5)C(=O)O4)c2n1` (stereo not drawn) [Example 14, cis or trans-6-{8-hydroxy-8-[2-(6-methoxy-[1,5]naphthyridin-4-yl)-ethyl]-2-oxo-1-oxa-3-aza-spiro[4.5]dec-3-yl}-4H-benzo[1,4]oxazin-3-one], in the assay with S. aureus A798 (second table), the “MIC S. aureus A798” value was “≦0.031 mg/l”.

As to `COc1ccc2nccc(CCC3(O)CCC4(CC3)CN(c3ccc5c(c3)NC(=O)CO5)C(=O)O4)c2n1` (stereo not drawn) [Example 15, cis or trans-6-{8-hydroxy-8-[2-(6-methoxy-[1,5]naphthyridin-4-yl)-ethyl]-2-oxo-1-oxa-3-aza-spiro[4.5]dec-3-yl}-4H-benzo[1,4]oxazin-3-one], the “MIC S. aureus A798” value against S. aureus A798 (second table) is on record as “≦0.031 mg/l”.

For `COc1ccc2nccc(/C=C/C3CCC4(CC3)CN(c3ccc5c(c3)OCCO5)C(=O)O4)c2c1` (mixture of isomers) [Example 17, cis/trans-3-(2,3-dihydro-benzo[1,4]dioxin-6-yl)-8-[(E)-2-(6-methoxy-quinolin-4-yl)-vinyl]-1-oxa-3-aza-spiro[4.5]decan-2-one], in the assay on S. aureus A798 (second table), the “MIC S. aureus A798” value stood at 2 µg/mL.

Take `COc1ccc2nccc(C(O)CN3CCC4(CC3)CN(c3ccc5c(c3)OCCO5)C(=O)O4)c2c1` (racemic) [Example 4, 3-(2,3-dihydro-benzo[1,4]dioxin-6-yl)-8-[(2RS)-2-hydroxy-2-(6-methoxy-quinolin-4-yl)-ethyl]-1-oxa-3,8-diaza-spiro[4.5]decan-2-one]: the MIC against S. aureus A798 was at most 0.031 µg/mL.

With “(5R,6R,8S)-3-(2,3-dihydro-benzo[1,4]dioxin-6-yl)-8-[(2R)-2-hydroxy-2-(6-methoxy-[1,5]naphthyridin-4-yl)-ethyl]-6-hydroxymethyl-1,7-dioxa-3-aza-spiro[4.5]decan-2-one and (5R,6R,8S)-3-(2,3-dihydro-benzo[1,4]dioxin-6-yl)-8-[(2S)-2-hydroxy-2-(6-methoxy-[1,5]naphthyridin-4-yl)-ethyl]-6-hydroxymethyl-1,7-dioxa-3-aza-spiro[4.5]decan-2-one [Example 1]”, in the assay with S. aureus A798 (second table), the “MIC S. aureus A798” value is 0.5 µg/mL.

Compound `COc1ccc2nccc([C@@H](O)CN3CC[C@]4(CN(c5ccc6c(c5)OCCO6)C(=O)O4)[C@H](CCO)C3)c2c1` (racemic) [Example 8, (5RS, 6RS)-3-(2,3-dihydro-benzo[1,4]dioxin-6-yl)-6-(2-hydroxy-ethyl)-8-[(2RS)-2-hydroxy-2-(6-methoxy-quinolin-4-yl)-ethyl]-1-oxa-3,8-diaza-spiro[4.5]decan-2-one] returned an MIC in the assay with S. aureus A798 of 1 µg/mL (≈ 1.87 µM).

As to `COc1ccc2nccc(NC(=O)C3CCC4(CC3)CN(c3ccc5c(c3)OCCO5)C(=O)O4)c2n1` (mixture of isomers) [Example 9, cis/trans-3-(2,3-dihydro-benzo[1,4]dioxin-6-yl)-2-oxo-1-oxa-3-aza-spiro[4.5]decane-8-carboxylic acid (6-methoxy-[1,5]naphthyridin-4-yl)-amide], the “MIC S. aureus A798” value with S. aureus A798 (second table) is “≦0.031 mg/l”.

Consider `COc1ccc2nccc(CCC3(O)CCC4(CC3)CN(c3ccc5c(c3)OCCO5)C(=O)O4)c2n1` (stereo not drawn) [Example 10, cis or trans-3-(2,3-dihydro-benzo[1,4]dioxin-6-yl)-8-hydroxy-8-[2-(6-methoxy-[1,5]naphthyridin-4-yl)-ethyl]-1-oxa-3-aza-spiro[4.5]decan-2-one], for which the “MIC S. aureus A798” value against S. aureus A798 (second table) was 0.125 µg/mL (≈ 0.254 µM).

For the compound `COc1ccc2ncnc(OC[C@H]3CC[C@@]4(CC3)CN(c3ccc5c(c3)OCCO5)C(=O)O4)c2c1` [Example 19, cis-3-(2,3-dihydro-benzo[1,4]dioxin-6-yl)-8-(6-methoxy-quinazolin-4-yloxymethyl)-1-oxa-3-aza-spiro[4.5]decan-2-one], the “MIC S. aureus A798” value against S. aureus A798 and in the assay on S. aureus A798 (second table) was 0.125 µg/mL (≈ 0.262 µM) each time. Moreover, the “MIC S. pneumoniae 49619” value with S. pneumoniae 49619 came to 0.25 µg/mL (≈ 0.524 µM). Moreover, the “MIC M. catarrhalis A894” value against M. catarrhalis A894 worked out at 0.5 µg/mL (≈ 1.05 µM).

The term MIC denotes the lowest concentration that inhibits growth of the organism. A high value points to a less susceptible organism.
